Common to all, as to assay type: in vivo
The subject of assay [1] is yellow fever mosquito (Aedes aegypti). The experiment in a line: whole plant or invertebrate. The settings on record: 48 h, larval mortality visually assessed after 2 days, read-out: mortality in comparison with untreated controls. As for the experimental part: For evaluating control of yellow fever mosquito (Aedes aegypti) the test unit consisted of 96-well-microtiter plates containing 200 μl of tap water per well and 5-15 freshly hatched A. aegypti larvae.
The active compounds or mixtures were formulated using a solution containing 75% (v/v) water and 25% (v/v) DMSO. Different concentrations of formulated compounds or mixtures were sprayed onto the insect diet at 2.5 μl using a custom built micro atomizer, at two replications.
For experimental mixtures in these tests identical volumes of both mixing partners at the desired concentrations respectively, were mixed together.
After application, microtiter plates were incubated at 28+1° C., 80+5% RH for 2 days. Larval mortality was then visually assessed.

For assay [2], the system named is Southern armyworm (Spodoptera eridania), 2nd instar larvae. The experiment in a line: Action on southern armyworm (Spodoptera eridania), 2nd instar larvae, sprayed lima bean plants. The settings on record: 96 h, 2nd instar larvae on lima bean plants, 4 days after treatment, read-out: mortality in comparison with untreated controls. As for the experimental part: The active compounds were formulated by a Tecan liquid handler in 100% cyclohexanone as a 10,000 ppm solution supplied in tubes. The 10,000 ppm solution was serially diluted in 100% cyclohexanone to make interim solutions. These served as stock solutions for which final dilutions were made by the Tecan in 50% acetone:50% water (v/v) into 10 or 20 ml glass vials. A nonionic surfactant (Kinetic®) was included in the solution at a volume of 0.01% (v/v). The vials were then inserted into an automated electrostatic sprayer equipped with an atomizing nozzle for application to plants/insects.
Lima bean plants (variety Sieve) were grown 2 plants to a pot and selected for treatment at the 1st true leaf stage. Test solutions were sprayed onto the foliage by an automated electrostatic plant sprayer equipped with an atomizing spray nozzle. The plants were dried in the sprayer fume hood and then removed from the sprayer. Each pot was placed into perforated plastic bags with a zip closure. About 10 to 11 armyworm larvae were placed into the bag and the bags zipped closed. Test plants were maintained in a growth room at about 25° C. and about 20-40% relative humidity for 4 days, avoiding direct exposure to fluorescent light (24 hour photoperiod) to prevent trapping of heat inside the bags. Mortality and reduced feeding were assessed 4 days after treatment, compared to untreated control plants.

The test system of assay [3] is Diamond back moth (Plutella xylostella). The experiment in a line: Action on diamond back moth (Plutella xylostella), cabbage leaf dip. The settings on record: foliar, 3rd instar larvae on dipped cabbage leaves, 72 hours after treatment, read-out: mortality in comparison with untreated controls. The protocol: The active compound is dissolved at the desired concentration in a mixture of 1:1 (v/v) distilled water: acetone. Surfactant (Kinetic® HV) is added at a rate of 0.01% (v/v). The test solution is prepared at the day of use.
Leaves of cabbage were dipped in test solution and air-dried. Treated leaves were placed in petri dishes lined with moist filter paper and inoculated with ten 3rd instar larvae. Mortality was recorded 72 hours after treatment. Feeding damages were also recorded using a scale of 0-100%.

Assay [4] deals with Silverleaf whitefly (Bemisia argentifolii) (adults). Put plainly: Action on silverleaf whitefly (Bemisia argentifolii) adults, sprayed cotton plants. The settings on record: 72 h, 3 days after treatment, read-out: mortality in comparison with untreated controls. The protocol:
The active compounds were formulated by a Tecan liquid handler in 100% cyclohexanone as a 10,000 ppm solution supplied in tubes. The 10,000 ppm solution was serially diluted in 100% cyclohexanone to make interim solutions. These served as stock solutions for which final dilutions were made by the Tecan in 50% acetone:50% water (v/v) into 5 or 10 ml glass vials. A nonionic surfactant (Kinetic®) was included in the solution at a volume of 0.01% (v/v). The vials were then inserted into an automated electrostatic sprayer equipped with an atomizing nozzle for application to plants/insects.
Cotton plants at the cotyledon stage (one plant per pot) were sprayed by an automated electrostatic plant sprayer equipped with an atomizing spray nozzle. The plants were dried in the sprayer fume hood and then removed from the sprayer. Each pot was placed into a plastic cup and about 10 to 12 whitefly adults (approximately 3-5 days old) were introduced. The insects were collected using an aspirator and a nontoxic Tygon® tubing connected to a barrier pipette tip. The tip, containing the collected insects, was then gently inserted into the soil containing the treated plant, allowing insects to crawl out of the tip to reach the foliage for feeding. Cups were covered with a reusable screened lid. Test plants were maintained in a growth room at about 25° C. and about 20-40% relative humidity for 3 days, avoiding direct exposure to fluorescent light (24 hour photoperiod) to prevent trapping of heat inside the cup. Mortality was assessed 3 days after treatment, compared to untreated control plants.

Assay [5] concerns boll weevil (Anthonomus grandis). The experiment in a line: Action on boll weevil (Anthonomus grandis), microtiter plate diet test. The following applies: 120 h, egg and larval mortality after 5 days, read-out: mortality in comparison with untreated controls. The protocol:
For evaluating control of boll weevil (Anthonomus grandis) the test unit consisted of 96-well-microtiter plates containing an insect diet and 5-10 A. grandis eggs.
The compounds were formulated using a solution containing 75% (v/v) water and 25% (v/v) DMSO. Different concentrations of formulated compounds were sprayed onto the insect diet at 5 μl, using a custom built micro atomizer, at two replications.
After application, microtiter plates were incubated at about 25+1° C. and about 75+5% relative humidity for 5 days. Egg and larval mortality was then visually assessed.

For assay [6], the system named is tobacco budworm (Heliothis virescens). Put plainly: Action on tobacco budworm (Heliothis virescens), microtiter plate diet test. The following applies: 120 h, egg and larval mortality after 5 days, read-out: mortality in comparison with untreated controls. As for the experimental part:
For evaluating control of tobacco budworm (Heliothis virescens) the test unit consisted of 96-well-microtiter plates containing an insect diet and 15-25 H. virescens eggs.
The compounds were formulated using a solution containing 75% v/v water and 25% v/v DMSO. Different concentrations of formulated compounds were sprayed onto the insect diet at 10 μl, using a custom-built micro atomizer, at two replications.
After application, microtiter plates were incubated at about 28+1° C. and about 80+5% relative humidity for 5 days. Egg and larval mortality were then visually assessed.

Assay [7] concerns Orchid thrips (Dichromothrips corbetti). The experiment in a line: Action on orchid thrips (Dichromothrips corbetti), floral-immersion technique. The following applies: adult thrips, 72 hours after treatment, read-out: mortality in comparison with untreated controls. The protocol: Dichromothrips corbetti adults used for bioassay were obtained from a colony maintained continuously under laboratory conditions. For testing purposes, the test compound is diluted in a 1:1 mixture of acetone:water (vol:vol), plus Kinetic® HV at a rate of 0.01% v/v.
Thrips potency of each compound was evaluated by using a floral-immersion technique. All petals of individual, intact orchid flowers were dipped into treatment solution and allowed to dry in Petri dishes. Treated petals were placed into individual re-sealable plastic along with about 20 adult thrips. All test arenas were held under continuous light and a temperature of about 28° C. for duration of the assay. After 3 days, the numbers of live thrips were counted on each petal. The percent mortality was recorded 72 hours after treatment.

This note sets out measurements from patent US12528800B2, “Pesticidal compounds” (BASF SE, priority 2018, dated 2026).

A value given as a limit tells only on which side of the number the result lay.

By mortality is commonly meant the share of the test organisms that died. Consider `CC(C)c1ccccc1NC(=S)N/N=C/c1ccc(-c2cc(NC(=O)c3ccc(OC(F)(F)F)cc3)n(C)n2)cc1` [Compound C-1, N-[5-[4-[(E)-[(2-isopropylphenyl)carbamothioylhydrazono]methyl]phenyl]-2-methyl-pyrazol-3-yl]-4-(trifluoromethoxy)benzamide], for which the figures for the mortality at 800 ppm in assay [1], in assay [5] and in assay [6] were at least 50%, at least 75% and at least 75%, respectively. In addition, the mortality at 300 ppm in assay [2] and in assay [4] was at least 75% each time. Moreover, the mortality at 500 ppm in assay [3] and in assay [7] was at least 75% each time.

Consider `CC(C)c1ccccc1NC(=S)N/N=C/c1ccc(-c2cc(OCc3ccc(OC(F)(F)F)cc3)n(C)n2)cc1` [Compound C-10, 1-(2-isopropylphenyl)-3-[(E)-[4-[1-methyl-5-[[4-(trifluoromethoxy)phenyl]methoxy]pyrazol-3-yl]phenyl]methyleneamino]thiourea], for which the mortality at 300 ppm in assay [2] and in assay [4] was at least 75% throughout. The mortality at 500 ppm in assay [3] and in assay [7] was at least 75% in each case. Further, the mortality at 800 ppm in assay [5] and in assay [6] was at least 75% each time.

Regarding `CC(C)c1ccccc1NC(=S)N/N=C/c1ccc(-c2cc(NC(=N)c3ccc(OC(F)(F)F)cc3)n(C)n2)cc1` [Compound C-5, 1-(2-isopropylphenyl)-3-[(E)-[4-[1-methyl-5-[[4-(trifluoromethoxy)benzenecarboximidoyl]amino]pyrazol-3-yl]phenyl]methyleneamino]thiourea], the mortality at 800 ppm is at least 50% in assay [1], at least 75% in assay [5] and at least 75% in assay [6]. In assay [2], the mortality at 300 ppm was at least 75%. The mortality at 500 ppm in assay [3] and in assay [7] was at least 75% each time.

In the case of `CC(C)c1ccccc1NC(=S)N/N=C/c1ccc(-c2cc(NCc3ccc(OC(F)(F)F)cc3)n(C)n2)cc1` [Compound C-3, 1-(2-isopropylphenyl)-3-[(E)-[4-[1-methyl-5-[[4-(trifluoromethoxy)phenyl]methylamino]pyrazol-3-yl]phenyl]methyleneamino]thiourea], the mortality at 800 ppm in assay [1] was at least 50%; in assay [5], at least 75%; in assay [6], at least 75%. For the same molecule, the mortality at 300 ppm in assay [2] is at least 75%. Besides, the mortality at 500 ppm in assay [3] and in assay [7] was at least 75% each time.

`CC(C)c1ccccc1NC(=S)N/N=C/c1ccc(-c2cc(COc3ccc(OC(F)(F)F)cc3)n(C)n2)cc1` [Compound C-52, 1-(2-isopropylphenyl)-3-[(E)-[4-[1-methyl-5-[[4-(trifluoromethoxy)phenoxy]methyl]pyrazol-3-yl]phenyl]methyleneamino]thiourea]: the mortality at 800 ppm in assay [1] is at least 50%; in assay [5], at least 75%; in assay [6], at least 75%. Moreover, the mortality at 300 ppm in assay [2] and in assay [4] was at least 75% throughout. The mortality at 500 ppm in assay [3] and in assay [7] was at least 75% throughout.
